Test results published in the NIST ThermoML archive (doi:10.1021/acs.jced.7b00584).
Numbers after ± are expanded uncertainties.

Key:
[1] = Boiling temperature at pressure P; settings: 101.3 kPa; Liquid; Ebulliometric method (Recirculating still)
[2] = Liquid, Ebulliometric method (Recirculating still)

vapor or sublimation pressure ([2]; 318.85 K) [kPa]	vapor or sublimation pressure ([2]; 328.15 K) [kPa]	SMILES	Boiling temperature at pressure P [1] [°C]	vapor or sublimation pressure ([2]; 479.1 K) [kPa]	vapor or sublimation pressure ([2]; 489.25 K) [kPa]	vapor or sublimation pressure ([2]; 450.25 K) [kPa]	vapor or sublimation pressure ([2]; 462.65 K) [kPa]
–	–	OCCCCO [1,4-butanediol]	228.00 ± 0.11	50 ± 1	70 ± 1	–	–
50 ± 1	70 ± 1	C1CCOC1 [tetrahydrofuran]	65.97 ± 0.11	–	–	–	–
–	–	O=C1CCCO1 [γ-butyrolactone]	204.00 ± 0.11	–	–	50 ± 1	70 ± 1
